What all share (format): cell-based, human
The test system of one test is HepG2 cells. As to the kind of experiment: Annexin V-FITC/PI apoptotic assay. An excerpt: (§1) Annexin V-fluorescein isothiocyanate (FITC) and counterstaining with propidium iodide (PI) using the Annexin V-FITC/PI apoptosis detection kit (BD Biosciences, San Diego, CA) were employed to distinguish early and late apoptotic cells according to the manufacturer's directions. Annexin V conjugated with fluorescein isothiocyanate was used to quantify the loss of phosphatidylserine asymmetry in cell membranes involved in apoptosis, and propidium iodide can distinguish between early apoptosis, late apoptotic, and necrotic cells. Analyses were achieved by using a FACSCalibur flow cytometer (BD Biosciences, San Jose, CA).
(§2) Cells were gently washed twice with PBS accompanied by tryptic digestion (0.25% trypsin/EDTA) and washed yet again with PBS. All the cells including the floating and adherent ones were harvested, pooled and stained with […] in 1× binding buffer for 15 min at room temperature in the dark. Analyses were achieved by FACS Calibur flow cytometer (BD Biosciences, San Jose, CA).

For test [1], the system named is Bax, Bcl-2, caspase-3, and caspase-9 in HepG2. The test is described as follows: RT-PCR relative expression of apoptosis markers. The following applies: IC50, 8-hour incubation, vs control. An excerpt: (§3) We determined the effect of IC50 concentration of newly synthesized thienopyrimidine derivatives (3a-e and 3g and 3b and 3g) on the relative expression levels of some markers of apoptosis in HepG2 and MCF-7 cell lines, respectively. These included the antiapoptotic marker Bcl-2 as well as the apoptotic markers Bax, caspase-3, and caspase-9 [33]. BIORAD iScript™ One-Step RT-PCR kit with SYBR® Green was used to assess the relative levels of expression of apoptosis markers. The measurement was carried out according to the technique of reverse transcription polymerase chain reaction (RT-PCR) using the Rotor-Gene RT-PCR system, and the method of the used kit was done based on the manufacturer's instructions. The procedure of this assay included the following:
(§4) Based on the manufacturer's instructions, the Qiagen RNeasy Extraction Kit (Qiagen Ltd., UK) was used to isolate mRNA from approximately 1 × 10^7 cells according to the cell line.
(§5) Mix all the following reagents to get the total volume (50 μl): 2X SYBR® Green RTPCR reaction mixture (25 μl), forward primer […] (1.5 μl), reverse primer […] (1.5 μl), nuclease-free water (11 μl), RNA template (1 pg-100 ng total RNA) (10 μl), and iScript reverse transcriptase (1 μl) for One-Step RT-PCR.
(§6) The thermal cycler (Rotor-Gene) program used was as follows: one cycle for reverse transcription at 50°C for 10 minutes and one cycle for RT inactivation/Hot-start activation at 95°C for 5 minutes and then 45 cycles for qPCR (10 s at 95°C, 30 seconds for annealing at 55°C, and 30 seconds for extension at 72°C), and this is followed by the final extension (one cycle) at 72°C for 10 minutes.

For test [2], the system named is Bax, Bcl-2, caspase-3, and caspase-9 in MCF-7. As to the kind of experiment: RT-PCR relative expression of apoptosis markers. The following applies: IC50, 8-hour incubation; for expression levels of Bax / expression levels of Bcl-2 / expression levels of caspase-3 / expression levels of caspase-9: vs control.
Source text: as §3, §4, §5, §6

Another test concerns MCF-7 cell line. The test is described as follows: Annexin V-FITC/PI apoptotic assay.
Source text: as §1, §2

For the compound `CCOC(=O)Cn1c(SCC(=O)Nc2ccc(C(=O)/C=C\c3cccc([N+](=O)[O-])c3)cc2)nc2sc3c(c2c1=O)CC(C)(C)NC3(C)C` [Compound 3g, Ethyl (Z)-2-(6,6,8,8-Tetramethyl-2-((2-((4-(3-(3-nitrophenyl)acryloyl)-phenyl)amino)-2-oxoethyl)thio)-4-oxo-5,6,7,8-tetrahydropyrido[4′,3′:4,5]thieno[2,3-d]pyrimidin-3(4H)-yl)acetate], the “early and late apoptosis” value with HepG2 cells is “significantly exhibited early and late apoptosis”. For the same compound, in test [1], the “expression levels of Bcl-2” value is listed as “noticeably decreased”. In test [2], the “Bax/Bcl-2 ratios” value is “strikingly elevated”, the “expression levels of Bax” value is given as “significant elevation”, the “expression levels of Bcl-2” value is “remarkable decrease” and the “expression levels of caspase-3” value is listed as “significant elevation”. Besides, in test [2], the “expression levels of caspase-9” value is given as “significant elevation”.
With `CCOC(=O)Cn1c(SCC(=O)Nc2ccc(C(=O)/C=C\c3cc(OC)c(OC)c(OC)c3)cc2)nc2sc3c(c2c1=O)CCN(C(=O)OCC)C3` [Compound 3b, Ethyl (Z)-3-(2-Ethoxy-2-oxoethyl)-4-oxo-2-((2-oxo-2-((4-(3-(3,4,5 trimethoxyphenyl)acryloyl)phenyl)amino)ethyl)thio)-3,5,6,8 tetra-hydropyrido[4′,3′:4,5]thieno[2,3-d]pyrimidine-7(4H)-carboxylate], the “total, early, and late apoptosis as well as necrosis relative to the control cells” value in the test with MCF-7 cell line is on record as “significant increase”. For the same compound, in the test with HepG2 cells, the “early and late apoptosis” value is “significantly exhibited early and late apoptosis”. Also, in test [2], the “Bax/Bcl-2 ratios” value is “strikingly elevated”, the “expression levels of Bax” value is listed as “significant elevation”, the “expression levels of Bcl-2” value is “remarkable decrease” and the “expression levels of caspase-3” value is given as “significant elevation”. Also, the “expression levels of caspase-9” value in test [2] is given as “significant elevation”.

These data come from article PMC8728392, “Synthesis, Anticancer Assessment, and Molecular Docking of Novel Chalcone-Thienopyrimidine Derivatives in HepG2 and MCF-7 Cell Lines” (Oxidative Medicine and Cellular Longevity, 2021).
